Reference: patent US5892026A, “High Trehalose content syrup” (Kabushiki Kaisha Hayashibara Seibutsu Kagaku Kenkyujo, priority 1995, dated 1999)
In brackets after ≈: the same amount, converted by molar mass. Where two headings read alike, the source gives them in different places.

Assay: Water solubility of trehalose at ambient temperature (Experiment 1)
Assay type: physicochemical
Details: for solubility thermodynamic at 24 h: water
Protocol: The water solubility of trehalose at ambient temperature was studied by placing into a glass beaker 10 parts by weight of water and 20 parts by weight of hydrous crystalline trehalose, incubating the mixture under stirring conditions at 10°, 15°, 20°, 25°, 30° or 40° C. for 24 hours in an incubator, filtering the resulting mixture, measuring the trehalose concentration of the filtrate, and determining the water solubility of trehalose in an anhydrous form in 100 g water at each temperature.

solubility thermodynamic at 24 h (10 °C, anhydrous form, read-out: trehalose content (g) dissolved in 100 g water): 553 mg/mL (≈ 1620 mM)
solubility thermodynamic at 24 h (15 °C, anhydrous form, read-out: trehalose content (g) dissolved in 100 g water): 618 mg/mL (≈ 1810 mM)
solubility thermodynamic at 24 h (20 °C, anhydrous form, read-out: trehalose content (g) dissolved in 100 g water): 689 mg/mL (≈ 2010 mM)
solubility thermodynamic at 24 h (25 °C, anhydrous form, read-out: trehalose content (g) dissolved in 100 g water): 773 mg/mL (≈ 2260 mM)
solubility thermodynamic at 24 h (30 °C, anhydrous form, read-out: trehalose content (g) dissolved in 100 g water): 866 mg/mL (≈ 2530 mM)
solubility thermodynamic at 24 h (40 °C, anhydrous form, read-out: trehalose content (g) dissolved in 100 g water): 1090 mg/mL (≈ 3190 mM)
solubility thermodynamic at 24 h (saturated in water, 10 °C, read-out: trehalose concentration (w/w %)): 356 mg/mL (≈ 1040 mM)
solubility thermodynamic at 24 h (saturated in water, 15 °C, read-out: trehalose concentration (w/w %)): 382 mg/mL (≈ 1120 mM)
solubility thermodynamic at 24 h (saturated in water, 20 °C, read-out: trehalose concentration (w/w %)): 408 mg/mL (≈ 1190 mM)
solubility thermodynamic at 24 h (saturated in water, 25 °C, read-out: trehalose concentration (w/w %)): 436 mg/mL (≈ 1270 mM)
solubility thermodynamic at 24 h (saturated in water, 30 °C, read-out: trehalose concentration (w/w %)): 464 mg/mL (≈ 1360 mM)
solubility thermodynamic at 24 h (saturated in water, 40 °C, read-out: trehalose concentration (w/w %)): 522 mg/mL (≈ 1520 mM)
SMILES: OC[C@H]1O[C@H](O[C@H]2O[C@H](CO)[C@@H](O)[C@H](O)[C@H]2O)[C@H](O)[C@@H](O)[C@@H]1O [Trehalose, α,α-trehalose]
water solubility / crystallization of trehalose (in words) (ambient temperature): dissolves in water in a relatively low concentration and readily crystallizes at ambient temperature
